From patent publication US11078222B2, “Hydroxybenzoic acid derivatives, methods and uses thereof” (UNiVERSIDADE DO PORTO, priority 2016, dated 2021)

Columns and labels:
[1] = DPPH radical scavenging activity (total antioxidant capacity); format: biochemical; conditions: ethanol, 515 nm, 45 min
Protocol: (§1) The radical scavenging activity of AntiOxClNs was evaluated by means of total antioxidant capacity assays based on DPPH., ABTS.^+ and GO. radicals. All these methods involved the spectrophotometric measurement of the absorbance decrease resulting from radical (DPPH., ABTS.^+ or GO.) deactivation with an antioxidant. The results were expressed in IC50, which is defined as the minimum antioxidant concentration necessary to reduce the amount of radical by 50%. Antioxidant assays were performed in a multiplate reader (Powerwave XS Microplate Reader) from Bio Tech instruments.
A DPPH ethanolic solution (6.85 mM) was also prepared and then diluted to reach the absorbance of 0.72±0.02 at 515 nm. Each compound solution (20 μL) was added to 180 μL of DPPH. solution in triplicate, and the absorbance at 515 nm was recorded minutely over 45 minutes. […] Dose-response curves were established for the determination of IC50 values.

[2] = ABTS radical cation scavenging activity; format: biochemical; conditions: ethanol, 15 min
Protocol: as §1
In an embodiment, the ABTS.^+ scavenging activity was evaluated as follows: ethanolic solutions of the test compounds with increasing concentrations (range between 10 μM and 500 μM) were prepared. ABTS. radical cation solution was obtained by addition of 150 mM aqueous potassium persulfate solution (163 μL) to 10 mL of 7 mM aqueous ABTS solution followed by storage in the dark at room temperature for 16 h (2.45 mM final concentration). The solution was then diluted in ethanol to reach the absorbance of 0.72±0.02. After addition of the compound (20 μL), in triplicate, to ABTS.^+ solution (180 μL) the spectrophotometric measurement was carried out each minute over 15 minutes. […] Dose-response curves were established for the determination of IC50 values.

[3] = Redox potential by differential pulse and cyclic voltammetry, glassy carbon electrode; format: physicochemical; conditions: physiological pH 7.4
Protocol: In an embodiment, the oxidative behaviour of the parent antioxidants (protocatechuic and gallic acids) and AntiOxBENs was evaluated at physiological pH 7.4, by differential pulse and cyclic voltammetry, using a glassy carbon working electrode. […] For pyrogallol derivatives (gallic acid, AntiOxBEN2, AntiOxBEN3), a significant decrease in redox potentials was observed (Ep=0.163-0.168 V) (Table 1).
In an embodiment, the electrochemical analytical data was obtained using a computer controlled potentiostat Autolab PGSTAT302N (Metrohm Autolab, Utrecht, Netherlands). Generally, cyclic voltammetry (CV) data was acquired at a scan rate of 50 mVs^−1. Differential pulse voltammetry (DPV) results were acquired at a step potential of 4 mV, pulse amplitude of 50 mV and scan rate of 8 mVs^−1. The electrochemical signals were monitored by the General Purpose Electrochemical System (GPES) version 4.9, software package. All electrochemical experiments were performed at room temperature in an electrochemical cell that was placed in a Faraday cage in order to minimize the contribution of background noise to the analytical signal.
In an embodiment, the process of evaluation of AntiOxBENs redox properties was conducted as follows: stock solutions of each compound (10 mM) were prepared by dissolving the appropriate amount in ethanol. The voltammetric working solutions were prepared in the electrochemical cell, at a final concentration of 0.1 mM. The […] supporting electrolyte was prepared by diluting 6.2 mL of 0.2 M dipotassium hydrogen phosphate and 43.8 mL of 0.2 M potassium dihydrogen phosphate to 100 mL. Voltammetric data was acquired in a three-electrode system consisting of a glassy carbon electrode (GCE, d=2 mm) as working electrode, a counter electrode of platinum wire and a saturated Ag/AgCl reference electrode. In an embodiment, the evaluation of AntiOxBENs lipophilic properties was performed as follows: the electrochemical cell was a four-electrode system with arrays of micro liquid-liquid interfaces (μITIES) containing two Ag/AgCl reference electrodes and two counter electrodes of Pt, one in each phase. The microporous membrane was sealed with a fluorosilicone sealant (Dow Corning 730) onto a glass cylinder which was filled with 4.0 mL of the aqueous phase, where the aliquots of AntiOxBENs solutions were added. The membrane was then immersed into the organic phase contained in the cell. The organic phase reference solution (a 2 mM BTPPACI+2 mM NaCl aqueous solution) was mechanically stabilized The aqueous supporting electrolyte solution was a Tris-HCl buffer 10 mM pH 7.0.

[4] = tested on: rat liver mitochondria (RLM); experiment: Mitochondrial respiration of isolated RLM (Clark-type oxygen electrode): RCR, ADP/O; format: biochemical; conditions: RLM
Protocol: In an embodiment, and as an example, the toxicity effects of some AntiOxBENs and MitoQ on the mitochondrial bioenergetics, namely on RLM Δψ and respiration parameters, were measured. The Δψ represents the main component of the electrochemical gradient generated by mitochondrial respiration and accounts for more than 90% of the total available energy. For mitochondrial respiration assays, glutamate/malate (for complex I) and succinate (for complex II) were used as substrates. In addition, the mitochondrial oxidative phosphorylation coupling index, known as respiratory control ratio (RCR, state 3/state 4 respiration) and ADP/O index (the coupling between ATP synthesis and oxygen consumption) were also calculated. AntiOxBENs and MitoQ were tested at antioxidant-relevant concentrations, with 10 μM being the highest concentration.
In an embodiment, the evaluation of AntiOxBENs effect on mitochondrial respiration was performed as follows: the respiration of isolated RLM was evaluated polarographically with a Clark-type oxygen electrode, connected to a suitable recorder in a 1 mL thermostated water-jacketed chamber with magnetic stirring, at 37° C. […] Increasing concentrations of AntiOxBENs (2.5-10 μM) were added to the reaction medium containing respiratory substrates glutamate/malate (10 mM and 5 mM respectively) or succinate (5 mM) and RLM (1 mg) and allowed to incubate for a 5 min period prior to the assay. State 2 was considered as the respiration during the 5 min incubation time with AntiOxBENs. […] State 4 was determined after ADP phosphorylation finished. Subsequent addition of oligomycin (2 μg/ml) inhibited ATPsynthase and originated the oligomycin-inhibition respiration state. Finally, 1 μM FCCP was added to induce uncoupled respiration. […] Data are means are means±SEM of seven independent experiments.

[5] = tested on: human hepatocellular carcinoma cells (HepG2); experiment: Cytotoxicity, SRB method; format: cell-based
Protocol: In an embodiment, and as an example, the cytotoxicity of AntiOxBENs was assessed using monolayer cultures of human hepatocytes from hepatocellular carcinoma (HepG2) and SRB method (FIG. 8).
In an embodiment, the cytotoxicity profile of AntiOxBENs was evaluated in human hepatocellular carcinoma HepG2 cells. Human hepatocellular carcinoma HepG2 cells were cultured in high-glucose medium composed by Dulbecco's modified Eagle's medium (DMEM; D5648) supplemented with sodium pyruvate (0.11 g/L), sodium bicarbonate (1.8 g/L) and 10% fetal bovine serum (FBS) and 1% of antibiotic penicillin-streptomycin 100× solution. Cells were maintained at 37° C. in a humidified incubator with 5% CO2. HepG2 cells were seeded at density of 4×10^4 cells/mL and grown for 24 hours before treatment.
In an embodiment the cytotoxicity screening was performed as follows: cells were placed on 48-well plate (2×10^4 cells/500 μL) and then were incubated during 48 hour with AntiOxBENs concentrations ranging 25 μM to 500 μM. After incubation, sulforhodamine B (SRB) assay was used for cell density determination based on the measurement of cellular protein content. Briefly, after incubation, the medium was removed and wells rinsed with PBS […]. Cells were fixed by adding 1% acetic acid in 100% methanol for at least 2 hours at −20° C. Later, the fixation solution was discarded and the plates were dried in an oven at 37° C. Two hundred and fifty microliters of 0.5% SRB in 1% acetic acid solution was added and incubated at 37° C. for 1 h. The wells were then washed with 1% acetic acid in water and dried. Then, 500 μl of Tris (pH 10) was added and the plates were stirred for 15 min. Finally, 200 μl of each supernatant was transferred in 96-well plates and optical density was measured at 540 nm. Data are means±SEM of four independent experiments and the results are expressed as percentage of control (control=100%), which represents the cell density without any treatment in the respective time point.

[6] = tested on: rat liver mitochondria (RLM) membranes; experiment: RLM lipid peroxidation, TBARS assay (FeSO4/H2O2/ascorbate); conditions: 5 μM, FeSO4/H2O2/ascorbate

| SMILES | IC50 [1] | IC50 [2] | ADP/O ([4]; Glutamate/Malate, 2.5 μM) | RCR ([4]; Glutamate/Malate, 2.5 μM) | ADP/O ([4]; Glutamate/Malate, 5 μM) | RCR ([4]; Glutamate/Malate, 5 μM) | ADP/O ([4]; Glutamate/Malate, 10 μM) | RCR ([4]; Glutamate/Malate, 10 μM) | ADP/O ([4]; Succinate, 2.5 μM) | RCR ([4]; Succinate, 2.5 μM) | ADP/O ([4]; Succinate, 5 μM) | RCR ([4]; Succinate, 5 μM) | ADP/O ([4]; Succinate, 10 μM) | RCR ([4]; Succinate, 10 μM) | prevention of TBARS formation / mitochondria lipid peroxidation [6] | concentrations at which cell proliferation was stimulated ([5]; HepG2, 48 hour, SRB) | other results |
| --- | --- | --- | --- | --- | --- | --- | --- | --- | --- | --- | --- | --- | --- | --- | --- | --- | --- |
| O=C(CCCCC[P+](c1ccccc1)(c1ccccc1)c1ccccc1)NCCCCCCNC(=O)c1cc(O)c(O)c(O)c1.[Br-] [AntiOxBEN3, [5-(6-(3,4,5-trihydroxybenzamido)hexylamino)carbonylpentyl]triphenylphosphonium bromide] | 18.7 µM | 9.6 µM | 2.3 ± 0.2 | 3.9 ± 0.5 | 2.3 ± 0.1 | 3.9 ± 0.6 | 2.0 ± 0.2 | 3.07 ± 0.6 | 1.6 ± 0.1 | 4.1 ± 0.5 | 1.6 ± 0.1 | 4.3 ± 0.7 | 1.7 ± 0.1 | 3.9 ± 0.4 | most effective |  | Ep (redox potential) ([3]; listed as MitoBEN3): 0.164 V; concentrations at which cell proliferation was significantly inhibited ([5]; human, 48 h): higher than 250 μM |
| O=C(NCCCCCC[P+](c1ccccc1)(c1ccccc1)c1ccccc1)c1ccc(O)c(O)c1.[Br-] [AntiOxBEN1, 6-(3,4-dihydroxybenzamido)hexyltriphenylphosphonium bromide] | 27.3 µM | 29.9 µM | 2.5 ± 0.2 | 4.9 ± 0.6 | 2.8 ± 0.4 | 4.4 ± 0.6 | 2.1 ± 0.1 | 2.6 ± 0.1 | 1.7 ± 0.03 | 4.7 ± 0.3 | 1.6 ± 0.1 | 3.0 ± 0.3 | 1.5 ± 0.1 | 2.8 ± 0.3 | not effective | higher than 100 μM | Ep (redox potential) [3]: 0.224 V; toxicity / effect on HepG2 cell proliferation ([5]; HepG2, 48 hour, 25 μM to 500 μM, SRB): small inhibition of cell proliferation for lower concentrations |
| O=C(NCCCCCC[P+](c1ccccc1)(c1ccccc1)c1ccccc1)c1cc(O)c(O)c(O)c1.[Br-] [AntiOxBEN2, 6-(3,4,5-trihydroxybenzamido)hexyltriphenylphosphonium bromide] | 18.3 µM | 10.3 µM | 2.3 ± 0.3 | 4.3 ± 0.6 | 2.3 ± 0.2 | 3.9 ± 0.5 | 2.1 ± 0.2 | 2.9 ± 0.3 | 1.7 ± 0.1 | 5.2 ± 0.9 | 1.7 ± 0.1 | 3.8 ± 0.4 | 1.6 ± 0.04 | 3.5 ± 0.3 | most effective | lower than 250 μM | Ep (redox potential) ([3]; listed as MitoBEN2): 0.168 V |
